Measured values from BindingDB's records for doi:10.1016/j.bmcl.2004.04.033 (Eli Lilly, 2004).
Structures can show the parent of a compound that is named as a salt.

Key:
[1] = molecular target: cAMP-dependent protein kinase catalytic subunit alpha (Bos taurus, UniProt P00517); assay: CDK Kinase Inhibition Assay; settings: 25 °C
[2] = molecular target: Cyclin-dependent kinase 4/G1/S-specific cyclin-D1 (Homo sapiens, UniProt P11802); assay: CDK Kinase Inhibition Assay; settings: pH 7; 22 °C
Experimental: In vitro CDK assay using purified enzyme, was incubated at room temperature with substrate, and test compounds in the presence of ATP/[gamma-33P]ATP. 33P incorporation was measured with a Top Count (Packard). IC50 is the inhibitor concentration which inhibits 50% of kinase activity that catalyzes the transfer of the terminal phosphate from 33P labeled ATP to the substrate.

Sequence of Cyclin-dependent kinase 4/G1/S-specific cyclin-D1 (P11802 whole entry): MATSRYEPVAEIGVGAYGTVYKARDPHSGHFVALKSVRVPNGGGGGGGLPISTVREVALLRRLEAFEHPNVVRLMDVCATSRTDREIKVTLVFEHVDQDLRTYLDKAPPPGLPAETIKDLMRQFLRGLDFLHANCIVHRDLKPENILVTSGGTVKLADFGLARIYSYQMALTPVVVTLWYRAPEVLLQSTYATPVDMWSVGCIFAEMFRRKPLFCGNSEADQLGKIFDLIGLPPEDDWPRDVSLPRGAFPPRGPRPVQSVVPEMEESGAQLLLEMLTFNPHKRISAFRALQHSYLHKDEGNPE
Sequence of Cyclin-dependent kinase 4/G1/S-specific cyclin-D1 (P24385 whole entry, further chain): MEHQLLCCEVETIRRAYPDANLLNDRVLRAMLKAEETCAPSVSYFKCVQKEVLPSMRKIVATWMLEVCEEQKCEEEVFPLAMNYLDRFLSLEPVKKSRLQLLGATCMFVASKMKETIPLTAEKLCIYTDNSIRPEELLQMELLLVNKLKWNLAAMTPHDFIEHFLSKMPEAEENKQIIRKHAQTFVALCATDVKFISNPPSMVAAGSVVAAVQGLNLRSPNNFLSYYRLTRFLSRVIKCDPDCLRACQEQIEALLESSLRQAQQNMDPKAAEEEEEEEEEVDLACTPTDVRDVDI

Structure (SMILES)	IC50 [1]	IC50 [2]
COc1ccc2c(c1)[nH]c1c2c2c(c3c4cccc5c4n(c13)CC(CO)C5)C(=O)NC2=O (stereo not given) [24-(hydroxymethyl)-7-methoxy-1,4,14-triazaheptacyclo[16.7.1.0^{2,17}.0^{3,11}.0^{5,10}.0^{12,16}.0^{22,26}]hexacosa-2(17),3(11),5(10),6,8,12(16),18(26),19,21-nonaene-13,15-dione]	> 2000 nM	
O=C1NC(=O)c2c1c1c3ccc(F)cc3[nH]c1c1c2c2cccc3c2n1CC(CO)C3 (stereo not given) [7-fluoro-24-(hydroxymethyl)-1,4,14-triazaheptacyclo[16.7.1.0^{2,17}.0^{3,11}.0^{5,10}.0^{12,16}.0^{22,26}]hexacosa-2(17),3(11),5(10),6,8,12(16),18(26),19,21-nonaene-13,15-dione]	> 2000 nM	
O=C1NC(=O)c2c1c1c3ccc(F)cc3[nH]c1c1c2c2cccc3c2n1C(CO)CC3 (stereo not given) [7-fluoro-25-(hydroxymethyl)-1,4,14-triazaheptacyclo[16.7.1.0^{2,17}.0^{3,11}.0^{5,10}.0^{12,16}.0^{22,26}]hexacosa-2(17),3(11),5(10),6,8,12(16),18(26),19,21-nonaene-13,15-dione]	> 2000 nM	
NC(=O)[C@@H]1CCCN1CC1Cc2cccc3c4c5c(c6c7ccc(F)cc7[nH]c6c4n(c23)C1)C(=O)NC5=O (stereo partly drawn) [(2S)-1-({7-fluoro-13,15-dioxo-1,4,14-triazaheptacyclo[16.7.1.0^{2,17}.0^{3,11}.0^{5,10}.0^{12,16}.0^{22,26}]hexacosa-2(17),3(11),5(10),6,8,12(16),18(26),19,21-nonaen-24-yl}methyl)pyrrolidine-2-carboxamide]		> 2000 nM
O=C1NC(=O)c2c1c1c3ccccc3ccc1c1c2c2cccc3c2n1C(CO)CC3 (stereo not given) [26-(hydroxymethyl)-1,15-diazaheptacyclo[17.7.1.0^{2,18}.0^{3,12}.0^{6,11}.0^{13,17}.0^{23,27}]heptacosa-2(18),3(12),4,6(11),7,9,13(17),19(27),20,22-decaene-14,16-dione]	> 2000 nM	
O=C1NC(=O)c2c1c1c3ccccc3[nH]c1c1c2c2cccc3c2n1CCC3CO (stereo not given) [23-(hydroxymethyl)-1,4,14-triazaheptacyclo[16.7.1.0^{2,17}.0^{3,11}.0^{5,10}.0^{12,16}.0^{22,26}]hexacosa-2(17),3(11),5(10),6,8,12(16),18(26),19,21-nonaene-13,15-dione]	> 2000 nM	
O=C1NC(=O)c2c1c1c3ccccc3[nH]c1c1c2c2cccc3c2n1CC(CO)C3 (stereo not given) [24-(hydroxymethyl)-1,4,14-triazaheptacyclo[16.7.1.0^{2,17}.0^{3,11}.0^{5,10}.0^{12,16}.0^{22,26}]hexacosa-2(17),3(11),5(10),6,8,12(16),18(26),19,21-nonaene-13,15-dione]	> 2000 nM	
CN(C)CC1Cc2cccc3c4c5c(c6c7ccccc7[nH]c6c4n(c23)C1)C(=O)NC5=O (stereo not given) [24-[(dimethylamino)methyl]-1,4,14-triazaheptacyclo[16.7.1.0^{2,17}.0^{3,11}.0^{5,10}.0^{12,16}.0^{22,26}]hexacosa-2(17),3(11),5(10),6,8,12(16),18(26),19,21-nonaene-13,15-dione]		898 nM
O=C1NC(=O)c2c1c1c3ccc(C(F)(F)F)cc3[nH]c1c1c2c2cccc3c2n1CC(CO)C3 (stereo not given) [24-(hydroxymethyl)-7-(trifluoromethyl)-1,4,14-triazaheptacyclo[16.7.1.0^{2,17}.0^{3,11}.0^{5,10}.0^{12,16}.0^{22,26}]hexacosa-2(17),3(11),5(10),6,8,12(16),18(26),19,21-nonaene-13,15-dione]	> 2000 nM	
O=C1NC(=O)c2c1c1c3ccc(Br)cc3[nH]c1c1c2c2cccc3c2n1CC(CO)C3 (stereo not given) [7-bromo-24-(hydroxymethyl)-1,4,14-triazaheptacyclo[16.7.1.0^{2,17}.0^{3,11}.0^{5,10}.0^{12,16}.0^{22,26}]hexacosa-2(17),3(11),5(10),6,8,12(16),18(26),19,21-nonaene-13,15-dione]	> 2000 nM	
O=C1NC(=O)c2c1c1c3ccc(F)cc3[nH]c1c1c2c2cccc3c2n1CC(CCl)C3 (stereo not given) [24-(chloromethyl)-7-fluoro-1,4,14-triazaheptacyclo[16.7.1.0^{2,17}.0^{3,11}.0^{5,10}.0^{12,16}.0^{22,26}]hexacosa-2(17),3(11),5(10),6,8,12(16),18(26),19,21-nonaene-13,15-dione]		64 nM
CNCC1Cc2cccc3c4c5c(c6c7ccc(F)cc7[nH]c6c4n(c23)C1)C(=O)NC5=O (stereo not given) [7-fluoro-24-[(methylamino)methyl]-1,4,14-triazaheptacyclo[16.7.1.0^{2,17}.0^{3,11}.0^{5,10}.0^{12,16}.0^{22,26}]hexacosa-2(17),3(11),5(10),6,8,12(16),18(26),19,21-nonaene-13,15-dione hydrochloride]	383 nM	8 nM
O=C1NC(=O)c2c1c1c3ccccc3ccc1c1c2c2cccc3c2n1CC(CO)C3 (stereo not given) [25-(hydroxymethyl)-1,15-diazaheptacyclo[17.7.1.0^{2,18}.0^{3,12}.0^{6,11}.0^{13,17}.0^{23,27}]heptacosa-2(18),3(12),4,6(11),7,9,13(17),19(27),20,22-decaene-14,16-dione]	> 2000 nM	
COC(=O)CC(NCC1Cc2cccc3c4c5c(c6c7ccc(F)cc7[nH]c6c4n(c23)C1)C(=O)NC5=O)C(=O)OC (stereo not given) [1,4-dimethyl 2-[({7-fluoro-13,15-dioxo-1,4,14-triazaheptacyclo[16.7.1.0^{2,17}.0^{3,11}.0^{5,10}.0^{12,16}.0^{22,26}]hexacosa-2(17),3(11),5(10),6,8,12(16),18(26),19,21-nonaen-24-yl}methyl)amino]butanedioate]		671 nM
